According to PMC12275099, “VX-445 (elexacaftor) inhibits chloride secretion across human bronchial epithelial cells by directly blocking KCa3.1 channels” (PNAS Nexus, 2025):

Columns and labels:
[1] = system: corrected F508del CFTR-expressing HBEs; experiment: Ussing chamber Isc, forskolin plus VX-770-stimulated Cl- secretion; format: cell-based, human
Description: It has been proposed that, similar to potentiation of basolateral KCa3.1, potentiation of apical BKCa would further stimulate Cl^− secretion across HBEs by increasing the electrochemical driving force for Cl^− exit across the apical membrane ([18], [19]). To assess this possibility, we determined whether acute addition of VX-445 affects forskolin-mediated Cl^− secretion across primary WT CFTR-expressing HBEs, using Isc measurements. […] Note, as VX-445 is a lipophilic compound, it was added to both apical and basolateral membranes. The addition of bumetanide (20 µM) further reduced Isc, as expected. […] In a total of nine filters from three separate donors, VX-445 inhibited an average of 47 ± 2% of the current, subsequent to VX-661 (P < 0.01). […] The current observed following forskolin stimulation consists of both bumetanide-sensitive Cl^− secretion and bumetanide-insensitive HCO3− secretion ([32–34]). Thus, we determined whether VX-445 would inhibit the remaining current subsequent to bumetanide. […] Given the surprising inhibition of Cl^− secretion observed, we chose to stimulate Cl^− secretion via an alternate mechanism and assess the effect of VX-445. […] Thus, we determined the effect of VX-445 on the DCEBIO-induced Cl^− secretory response. […] We next determined whether VX-445 would similarly decrease the forskolin-stimulated transepithelial Cl^− currents in corrected F508del HBEs. […]

[2] = parameters: method as in earlier work; details: clinical trial data, converted, cited from earlier work

Cc1nn(C)cc1S(=O)(=O)NC(=O)c1ccc(-n2ccc(OCC(C)(C)C(F)(F)F)n2)nc1N1C[C@@H](C)CC1(C)C [VX-445, elexacaftor]
Isc in the presence of VX-445 ([1]; Fig 1J, single filters, VX-445 10 µM after forskolin/VX-770): 10
decrease in forskolin plus VX-770-stimulated Isc ([1]; acute VX-445 10 µM, F508del corrected overnight with VX-445 1 µM plus VX-661 3 µM, 35 filters from five donors): 64 ± 2%
minimal (Cmin) plasma concentration [2]: 6 to 9 µM
Cmax ([2]; read-out: maximal (Cmax) plasma concentration): ~15 µM
